The source of these data is US20080039455A1, “PYRAZOLOPYRIMIDINES AND SALTS THEREOF, PHARMACEUTICAL COMPOSITIONS COMPRISING SAME, METHODS OF PREPARING SAME AND USES OF SAME” (priority 2006, published 2008).

pIC50: −log10 of the molar value. A value given as a limit tells only on which side of the number the result lay.

The target of test [1] is T1, ALK1 (wildtype full-length ALK1 receptor) (Homo sapiens, UniProt P37023).
T1 construct: expression vector for wildtype full-length ALK1 receptor; expressed in transfected cells; host or cells: HepG2 (ATCC HB-8065), transient transfection with ALK1wt in pcDNA3.1
T1 sequence (P37023 22-503): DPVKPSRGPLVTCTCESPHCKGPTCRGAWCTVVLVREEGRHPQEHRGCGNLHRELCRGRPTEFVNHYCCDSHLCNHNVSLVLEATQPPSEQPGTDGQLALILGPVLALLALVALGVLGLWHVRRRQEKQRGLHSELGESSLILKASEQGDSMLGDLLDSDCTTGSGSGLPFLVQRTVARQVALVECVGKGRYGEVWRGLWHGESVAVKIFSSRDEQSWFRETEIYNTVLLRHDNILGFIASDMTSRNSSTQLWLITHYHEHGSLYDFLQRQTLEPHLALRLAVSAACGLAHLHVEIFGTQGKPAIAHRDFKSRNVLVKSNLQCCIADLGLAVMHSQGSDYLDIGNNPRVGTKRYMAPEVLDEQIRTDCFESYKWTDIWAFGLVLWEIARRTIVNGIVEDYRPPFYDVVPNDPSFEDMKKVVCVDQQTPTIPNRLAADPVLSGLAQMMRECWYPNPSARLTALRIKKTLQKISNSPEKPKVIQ
Put plainly: ALK1 transactivation assay (ID1-promoter luciferase reporter in transfected HepG2 cells). The format is cell-based. Particulars: ID1-luc reporter, 18 h, read-out: Assay 2 (ALK1 transactivation assay IC50 class). An excerpt: Biological Assay 2: ALK1 Transactivation Assay
Herein HepG2 cell-cultures were transiently transfected by known techniques with an ALK1 plasmid (expression vector for wildtype full-length ALK1 receptor) and ID1 reporter plasmid containing 1.3 kB (−1370 to +86) of the ID1-promoter upstream of a luciferase reporter gene. ID1 is a known target gene of ALK1 and therefore gets transactivated by cotransfection with the ALK1 receptor. The specific transactivation is quantified via relative light units (RLU) which are detected in dependence of luciferase expression. Therefore a commercially available detection kit which contains the luciferase substrate luciferine was used.
HepG2 cells, ATCC HB-8065
96well plate polypropylene for compound dilution in DMSO
DMEM Ham's F12 (Biochrom #F4815) with 10% FCS after dialysis, 1% PenStrep and 200 mM Glutamine
steadyliteHTS (Perkin Elmer# 6016981)
Day 1: Seeding of Cells on 96-Well Plates
HepG2 cells are seeded on 96-well plates at a density of 7000 cells/ well in DMEM/HamsF12+5% FCS (+1% P/S, +1% Gln).
Day 2: Transfection of Cells
200 ng DNA: 100 ng ID1-luc (in pGL3basic, Promega)+5 ng ALK1wt (in pcDNA3.1)+95 ng pcDNA3.1 (empty vector, Invitogen)
Fugene and OptiMEM are incubated for 5 min at RT. This mixture is incubated with the DNA for 15 min at RT.
Afterwards, the plate is incubated under shaking conditions at room temperature (RT) for 1 h. After 4 hours at 37° C. the supernatants are drawn off by suction and the wells are replaced with medium (100 μl/well) containing low serum (0.2% FCS) and test substances.
Plates are incubated for further 18 h at 37° C.
100 μl luciferase substrate (steadyliteHTS, Packard) are added per well and plates are measured after 10 minutes in a luminometer (e.g. Viktor luminometer, Perkin Elmer). Luciferase activity is quantified by relative light units (RLU).
Calculation of IC50: ALK1wt−DMSO Control (without ALK1)=100% Substance(+ALK1wt)−DMSO control (without ALK1)=x % IC50=50% inhibition of ALK1 transactivation activity Biological data are presented below: Biological assay 1: ALK1-Kinase Flashplate-Assay
Background: Reporter assays use an easily measured gene product as a stand-in for the process of interest.

Test [2] addresses T2, human recombinant ALK1 (GST fused to ALK1 intracellular domain [His142-Gln503]) (Homo sapiens, UniProt P37023).
T2 construct: GST fused to ALK1 intracellular domain [His142-Gln503]; made in house
T2 sequence (P37023 142-503): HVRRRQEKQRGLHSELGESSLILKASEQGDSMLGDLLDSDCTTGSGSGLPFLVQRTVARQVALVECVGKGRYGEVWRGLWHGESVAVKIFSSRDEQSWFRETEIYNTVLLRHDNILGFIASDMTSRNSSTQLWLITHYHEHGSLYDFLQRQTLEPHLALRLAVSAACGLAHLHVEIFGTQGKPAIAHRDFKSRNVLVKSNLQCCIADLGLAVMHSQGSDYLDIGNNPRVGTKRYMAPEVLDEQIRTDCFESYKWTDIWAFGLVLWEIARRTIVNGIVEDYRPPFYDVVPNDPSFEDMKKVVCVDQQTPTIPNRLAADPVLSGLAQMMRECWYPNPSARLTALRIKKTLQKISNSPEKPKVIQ
The test is described as follows: ALK1-Kinase Flashplate-Assay. The format is biochemical. The conditions noted are these: 0.5 μM ATP, biotinylated α-casein substrate; read-out: Assay 1 (ALK1-Kinase Flashplate-Assay IC50 class). A digest of the protocol: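 Radiometric Flashplate assay at 20 °C: GST-ALK1 intracellular domain (5 ng/well) with 1 μM biotinylated bovine α-casein, 0.5 μM ATP plus [γ-33P]ATP in Tris pH 8.0, 1 mM MnCl2, 1% or 5% DMSO, 60 min. Normalised to no-inhibitor (0%) and 10 mM EDTA (100%); IC50 by 4-parameter fit.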

On to `Cc1ccc(Nc2ccn3ncc(-c4cccc(O)c4)c3n2)cc1NS(C)(=O)=O` [Example 427, N-{5-[3-(3-Hydroxy-phenyl)-pyrazolo[1,5-a]pyrimidin-5-ylamino]-2-methyl-phenyl}-methanesulfonamide], for which the pIC50 (as a rule, −log10 of the IC50, conventionally taken in molar units) was more than 5.00 in test [1] and more than 6.00 in test [2].
Take `FC(F)(F)c1cccc(-c2cnn3ccc(Nc4ccc(N5CCOCC5)nc4)nc23)c1` [Example 26, (6-Morpholin-4-yl-pyridin-3-yl)-[3-(3-trifluoromethyl-phenyl)-pyrazolo[1,5-a]pyrimidin-5-yl]-amine]: the pIC50 in test [1] is more than 5.00; in test [2], more than 6.00.
Take `CN1CCC(Nc2ccn3ncc(-c4cccc(C(F)(F)F)c4)c3n2)CC1` [Example 490, (1-methyl-piperidin-4-yl)-[3-(3-trifluoromethyl-phenyl)-pyrazolo[1,5-a]pyrimidin-5-yl]-amine]: the figures for the pIC50 in test [1] and in test [2] were more than 5.00 and more than 6.00, respectively.
`CC(C)c1ccc(Nc2ccn3ncc(-c4cccc(C(N)=O)c4)c3n2)cc1` [Example 449, 3-[5-(4-Isopropyl-phenylamino)-pyrazolo[1,5-a]pyrimidin-3-yl]-benzamide]: the pIC50 in test [1] was more than 5.00; in test [2], more than 6.00.
With `COc1ccc(-c2cnn3ccc(Nc4ccc(N5CCOCC5)cc4)nc23)cc1OC` [Example 27, [3-(3,4-Dimethoxy-phenyl)-pyrazolo[1,5-a]pyrimidin-5-yl]-(4-morpholin-4-yl-phenyl)-amine], the pIC50 was more than 5.00 in test [1] and more than 6.00 in test [2].
Consider `CS(=O)(=O)c1cccc(-c2cnn3ccc(Nc4ccc(N5CCOCC5)cc4)nc23)c1` [Example 131, [3-(3-Methanesulfonyl-phenyl)-pyrazolo[1,5-a]pyrimidin-5-yl]-(4-morpholin-4-yl-phenyl)-amine], for which the pIC50 in test [1] was more than 5.00; in test [2], more than 6.00.
